Measurements from patent publication US20140357713A1, “ANTIMICROBIAL COMPOUNDS AND METHODS OF USE” (NexMed Holdings, Inc., priority 2012, published 2014).
Read-outs that look alike come from different tables or passages of the source.

Experiments:
[1] = system: Staphulococcus aureus (ATCC 29213); test: Minimum inhibitory concentration (MIC) assay, Example 33; type: cell-based, Staphylococcus aureus; details: Staphylococcus aureus
How it was run: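 Broth microdilution per CLSI guidelines in CAMHB, with 2-fold serial compound dilutions. Inoculum was set to a 0.5 McFarland standard, diluted 1:100 to twice the test density, then mixed 1:2 with drug. Plates were incubated at 35° C and the MIC read per CLSI.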

[2] = system: Aspergillus niger; test: Extended time kill study, Example 34 (0 to 24 h); type: cell-based
Description: (§1) Time kill studies. Strain suspensions were prepared as described above for the MIC test, and strain suspensions and compound solutions were mixed in the same volume. Samples were removed at specified times including 0 min, 30 sec, 1 min and 5 mins, were diluted in the test medium and streaked on agar. Colonies were counted after 24 to 48 hrs of incubation.
(§2) The time kill studies of Example 33 were extended for five compounds (Nex-59, Nex-60, Nex-61, Nex-62, and Nex-88) using the same methods at longer time periods and at higher multiples of MIC. Nex-88 is a code number for DDAIP.HCl from a different supplier.

[3] = system: Candida albicans; test: Extended time kill study, Example 34 (0 to 24 h); type: cell-based
Description: as §1, §2

[4] = system: Pseudomonas aeruginosa; test: Extended time kill study, Example 34 (0 to 24 h); type: cell-based
Description: as §1, §2

MIC ([1]; ATCC29213, Table 19 summary, read-out: MIC): 1560 µg/mL | MIC ([1]; ATCC29213, n = 1, read-out: MIC S. aureus): 1560 µg/mL | MIC ([1]; ATCC29213, n = 2, read-out: MIC S. aureus): 1560 µg/mL | melting point: 86 to 91 °C
SMILES: CCCCCCCCCCCCOC(=O)C(C)NC(C)C.Cl (stereo not shown) [Nex-60, Dodecyl 2-(isopropylamino)propanoate hydrochloride]
Viable counts in Log10 CFU/mL ([2]; 1 × MIC, 1 h): 4.60 Log10 CFU/mL | Viable counts in Log10 CFU/mL ([2]; 1 × MIC, 2 h): 4.78 Log10 CFU/mL | Viable counts in Log10 CFU/mL ([2]; 1 × MIC, 4 h): 4.60 Log10 CFU/mL | Viable counts in Log10 CFU/mL ([2]; 1 × MIC, 6 h): 4.30 Log10 CFU/mL | Viable counts in Log10 CFU/mL ([2]; 1 × MIC, 24 h): 3.81 Log10 CFU/mL | Viable counts in Log10 CFU/mL ([2]; 1 × MIC, 0 h): 5.52 Log10 CFU/mL | Viable counts in Log10 CFU/mL ([2]; 2 × MIC, 1 h): 4.30 Log10 CFU/mL | Viable counts in Log10 CFU/mL ([2]; 2 × MIC, 2 h): 4.78 Log10 CFU/mL | Viable counts in Log10 CFU/mL ([2]; 2 × MIC, 4 h): 3.85 Log10 CFU/mL | Viable counts in Log10 CFU/mL ([2]; 2 × MIC, 6 h): 3.78 Log10 CFU/mL | Viable counts in Log10 CFU/mL ([2]; 2 × MIC, 24 h): 4.30 Log10 CFU/mL | Viable counts in Log10 CFU/mL ([2]; 2 × MIC, 0 h): 5.47 Log10 CFU/mL | Viable counts in Log10 CFU/mL ([2]; 4 × MIC, 1 h): 4.00 Log10 CFU/mL | Viable counts in Log10 CFU/mL ([2]; 4 × MIC, 2 h): 4.48 Log10 CFU/mL | Viable counts in Log10 CFU/mL ([2]; 4 × MIC, 4 h): 3.60 Log10 CFU/mL | Viable counts in Log10 CFU/mL ([2]; 4 × MIC, 6 h): 3 Log10 CFU/mL | Viable counts in Log10 CFU/mL ([2]; 4 × MIC, 24 h): <2 Log10 CFU/mL | Viable counts in Log10 CFU/mL ([2]; 4 × MIC, 0 h): 5.60 Log10 CFU/mL | Viable counts in Log10 CFU/mL ([3]; 1 × MIC, 1 h): 5.51 Log10 CFU/mL | Viable counts in Log10 CFU/mL ([3]; 1 × MIC, 2 h): 5.50 Log10 CFU/mL | Viable counts in Log10 CFU/mL ([3]; 1 × MIC, 4 h): 5.18 Log10 CFU/mL | Viable counts in Log10 CFU/mL ([3]; 1 × MIC, 6 h): 5.09 Log10 CFU/mL | Viable counts in Log10 CFU/mL ([3]; 1 × MIC, 24 h): >6 Log10 CFU/mL | Viable counts in Log10 CFU/mL ([3]; 1 × MIC, 0 h): 5.56 Log10 CFU/mL | Viable counts in Log10 CFU/mL ([3]; 2 × MIC, 1 h): 3.30 Log10 CFU/mL | Viable counts in Log10 CFU/mL ([3]; 2 × MIC, 2 h): 3.00 Log10 CFU/mL | Viable counts in Log10 CFU/mL ([3]; 2 × MIC, 4 h): 3.00 Log10 CFU/mL | Viable counts in Log10 CFU/mL ([3]; 2 × MIC, 6 h): <2.70 Log10 CFU/mL | Viable counts in Log10 CFU/mL ([3]; 2 × MIC, 24 h): <1 Log10 CFU/mL | Viable counts in Log10 CFU/mL ([3]; 2 × MIC, 0 h): 5.51 Log10 CFU/mL | Viable counts in Log10 CFU/mL ([3]; 4 × MIC, 1 h): 3.78 Log10 CFU/mL | Viable counts in Log10 CFU/mL ([3]; 4 × MIC, 2 h): 3.30 Log10 CFU/mL | Viable counts in Log10 CFU/mL ([3]; 4 × MIC, 4 h): 3.00 Log10 CFU/mL | Viable counts in Log10 CFU/mL ([3]; 4 × MIC, 6 h): <2.70 Log10 CFU/mL | Viable counts in Log10 CFU/mL ([3]; 4 × MIC, 24 h): <1 Log10 CFU/mL | Viable counts in Log10 CFU/mL ([3]; 4 × MIC, 0 h): 5.62 Log10 CFU/mL | Viable counts, Pseudomonas aeruginosa time kill study ([4]; 1 × MIC, 1 h): <1 Log10 CFU/mL | Viable counts, Pseudomonas aeruginosa time kill study ([4]; 1 × MIC, 2 h): <1 Log10 CFU/mL | Viable counts, Pseudomonas aeruginosa time kill study ([4]; 1 × MIC, 4 h): <1 Log10 CFU/mL | Viable counts, Pseudomonas aeruginosa time kill study ([4]; 1 × MIC, 6 h): <1 Log10 CFU/mL | Viable counts, Pseudomonas aeruginosa time kill study ([4]; 1 × MIC, 24 h): <1 Log10 CFU/mL | Viable counts, Pseudomonas aeruginosa time kill study ([4]; 1×MIC, time 0): 5.30 Log10 CFU/mL | Viable counts, Pseudomonas aeruginosa time kill study ([4]; 2 × MIC, 1 h): <1 Log10 CFU/mL | Viable counts, Pseudomonas aeruginosa time kill study ([4]; 2 × MIC, 2 h): <1 Log10 CFU/mL | Viable counts, Pseudomonas aeruginosa time kill study ([4]; 2 × MIC, 4 h): <1 Log10 CFU/mL | Viable counts, Pseudomonas aeruginosa time kill study ([4]; 2 × MIC, 6 h): <1 Log10 CFU/mL | Viable counts, Pseudomonas aeruginosa time kill study ([4]; 2 × MIC, 24 h): <1 Log10 CFU/mL | Viable counts, Pseudomonas aeruginosa time kill study ([4]; 2 × MIC, time 0): 5.28 Log10 CFU/mL | Viable counts, Pseudomonas aeruginosa time kill study ([4]; 4 × MIC, 1 h): <1 Log10 CFU/mL | Viable counts, Pseudomonas aeruginosa time kill study ([4]; 4 × MIC, 2 h): <1 Log10 CFU/mL | Viable counts, Pseudomonas aeruginosa time kill study ([4]; 4 × MIC, 4 h): <1 Log10 CFU/mL | Viable counts, Pseudomonas aeruginosa time kill study ([4]; 4 × MIC, 6 h): <1 Log10 CFU/mL | Viable counts, Pseudomonas aeruginosa time kill study ([4]; 4 × MIC, 24 h): <1 Log10 CFU/mL | Viable counts, Pseudomonas aeruginosa time kill study ([4]; 4 × MIC, time 0): 5.31 Log10 CFU/mL
